Where “and” joins values, the source holds several entries; their conditions need not be identical. Equal values may be shown once.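 Following 48 hours of exposure in 96-well plates, responses at five concentrations were used to interpolate endpoints linearly. GI50: concentration for 50% inhibition of growth. TGI: total growth inhibition.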

Holding throughout (assay): NCI-60 cell line screen, 48 h
The test system of assay [1] is CAKI-1 renal.
In assay [2] the test system is TK-10 renal.
In assay [3] the test system is IGROV1 ovarian.
The test system of assay [4] is MALME-3M melanoma.
Assay [5] has as its system SF-268 CNS.
For assay [6], the system named is RPMI-8226 leukemia.
Assay [7] concerns SK-MEL-5 melanoma.
Assay [8] deals with SNB-75 CNS.
Assay [9] deals with NCI/ADR-RES ovarian.
Assay [10] relates to OVCAR-3 ovarian.

With `COC(=O)c1cc2c3ccccc3n3c(=O)c4cc5ccc(N(S(=O)(=O)c6ccc(C)cc6)S(=O)(=O)c6ccc(C)cc6)cc5nc4c(n1)c23`, the GI50 was more than 100 µM in assay [1]; 19.4 µM in [2]; 43.7 µM in [3]; 69.7 µM in assay [4]; 39.2 µM in assay [5]; 43.7 µM in [6]. The GI50 in [7] is more than 100 µM; in assay [8], 44.5 µM; in [9], more than 100 µM; in assay [10], more than 100 µM. Further, the TGI is more than 100 µM in assay [1]; 44 µM in assay [2]; more than 100 µM in assay [3]; more than 100 µM in [4]; more than 100 µM in assay [5]; more than 100 µM in [6]. The TGI in assay [7], in assay [8], in assay [9] and in [10] was more than 100 µM in each case.
As to `O=C1/C(=C/c2cccc(Br)c2)COc2ccc(O)cc21`, the GI50 in [1] is 1.83 µM; in assay [2], 3.94 µM; in assay [3], 1.92 µM; in [4], 2.36 µM; in assay [5], 3.33 µM; in [6] it was 0.26 µM. The GI50 in [7] is 1.91 µM; in assay [8], 1.79 µM; in assay [9] it was 3.24 µM; in assay [10] it was 1.82 µM. In addition, the TGI in [1] was 5.12 µM; in assay [2] it was 15.6 µM; in assay [3], 4.75 µM; in assay [4], 6.65 µM; in [5], 18.2 µM; in assay [6] it was 0.761 µM. Moreover, the TGI was found to be 4.35 µM in assay [7], 14.6 µM in assay [8], 13.5 µM in assay [9] and 3.89 µM in [10].
In the case of `CCOC(=O)Nc1nc2ccc(OC)cc2s1`, the GI50 in [1], in [2], in [3], in [4], in assay [5] and in assay [6] was more than 100 µM in each case. Also, the GI50 in assay [7], in assay [8], in [9] and in [10] was more than 100 µM in each case. The TGI in assay [1], in assay [2], in assay [3], in assay [4], in [5] and in [6] was more than 100 µM each time. Also, the TGI in assay [7], in assay [8], in assay [9] and in assay [10] was more than 100 µM in each case.
With `FC(F)(c1ccc2ncccc2c1)c1nnc2ccc(-c3ccncc3)nn12`, the GI50 was 25.1 µM in assay [1]; 73.1 µM in assay [2]; 49.4 µM in assay [3]; more than 100 µM in assay [4]; 66.5 µM in [5]; 53.3 µM in [6]. For the same compound, the GI50 in assay [7] was 48.5 µM; in assay [8], 19 µM; in assay [9], 64.3 µM; in assay [10] it was more than 100 µM. In addition, the TGI in [1], in assay [2], in assay [3], in assay [4], in assay [5] and in [6] was more than 100 µM in each case. Besides, the TGI in assay [7], in assay [8], in [9] and in [10] was more than 100 µM each time.
With `O=S(=O)(NC1=NCCN1C(=S)SN1CCn2c1nsc2=S)c1cccc2ccccc12`, the GI50 in [1] was 22.8 µM; in assay [2] it was 21.4 µM; in assay [3] it was 10 µM; in assay [4], 12.3 µM; in assay [5] it was 23.3 µM; in assay [6] it was 3.7 µM. For the same compound, the GI50 in [7] is 19.1 µM; in [8] it was 24.3 µM; in [9] it was 45.5 µM; in assay [10], 16.5 µM. Moreover, the TGI in [1] is 69.7 µM; in [2] it was 64.8 µM; in [3] it was 32.6 µM; in assay [4], 57.4 µM; in [5], more than 100 µM; in [6] it was 67.8 µM. Also, the TGI in [7] was 54.4 µM; in assay [8] it was more than 100 µM; in assay [9], more than 100 µM; in assay [10] it was 40.3 µM.
Turning to `CN(CCCCCl)P(=O)(OCCS(=O)(=O)CC(NC(=O)CCC(N)C(=O)O)C(=O)NC(C(=O)O)c1ccccc1)OCC1OC(n2ccc(N)nc2=O)C(F)(F)C1O` (centres undefined), the GI50 in assay [1] was 0.0438 µM; in [2], 32.8 µM; in [3], 0.0581 µM; in assay [4] it was 3.06 µM; in [5], 0.337 µM; in assay [6], 0.901 µM. In addition, the GI50 in assay [7] was 0.484 µM; in [8], 0.825 µM; in [9] it was 0.0664 µM; in [10], 14.7 µM. The TGI in [1] was 5.8 µM; in assay [2] it was more than 100 µM; in assay [3], 25.9 µM; in assay [4], more than 100 µM; in assay [5], more than 100 µM; in assay [6], more than 78.1 µM. Moreover, the TGI in assay [7] was more than 100 µM; in assay [8], more than 25.2 µM; in assay [9], more than 62.8 µM; in [10], more than 100 µM.
With `C[C@@H]1C[C@H](C)CN(S(=O)(=O)c2ccc3c(NO)c4ccc(S(=O)(=O)N5C[C@H](C)C[C@H](C)C5)cc4c(N=O)c3c2)C1`, the GI50 was 0.335 µM in [1]; 0.168 µM in assay [2]; 0.21 µM in assay [3]; 0.14 µM in assay [4]; 0.0252 µM in assay [5]; 0.24 µM in assay [6]. The GI50 was 0.25 µM in [7], 0.123 µM in [8], 0.302 µM in assay [9] and 0.182 µM in [10]. Also, the TGI is more than 1 µM in assay [1]; 0.321 µM in [2]; 0.461 µM in [3]; 0.293 µM in assay [4]; 0.0698 µM in assay [5]; 0.669 µM in assay [6]. In addition, the TGI in assay [7] was 0.687 µM; in assay [8] it was 0.255 µM; in assay [9], more than 1 µM; in assay [10], 0.328 µM.
Turning to `CC(C)c1cnn2c(NCc3ccccc3)cc(NC[C@H]3CCNC[C@@H]3O)nc12`, the GI50 in assay [1] was 0.472 µM and 1.65 µM; in assay [2], 1.5 µM and 2.27 µM; in [3], 0.252 µM and 0.279 µM; in assay [4], 0.805 µM and 0.3 µM; in assay [5], 0.402 µM and 0.648 µM; in assay [6] it was 0.158 µM and 0.211 µM. The GI50 was 0.742 µM and 1.19 µM in assay [7]; 0.515 µM and 1.32 µM in assay [8]; 15.4 µM and 19.7 µM in assay [9]; 0.489 µM and 0.707 µM in [10]. The TGI in [1] is 9.13 µM and 11.4 µM; in assay [2], 10.4 µM and 10.9 µM; in assay [3] it was 11 µM and 10.3 µM; in assay [4], 2.6 µM and 2.72 µM; in [5], 4.63 µM and 2.72 µM; in assay [6], 1.82 µM and 4.14 µM. Besides, the TGI in assay [7] is 2.35 µM and 3.59 µM; in [8], 2.04 µM and 2.83 µM; in assay [9] it was 46.9 µM and > 87.5 µM; in assay [10], 8.66 µM and 4.17 µM.
As to `CCNc1cc(-c2cccc(OC(F)(F)F)c2)nc2ccc(N3CCCC3)cc12`, the GI50 in assay [1] is 1.81 µM; in assay [2] it was 2.58 µM; in [3] it was 1.78 µM; in assay [4], 1.74 µM; in [5], 1.79 µM; in [6] it was 1.34 µM. The GI50 was 1.51 µM in assay [7], 1.53 µM in [8], 1.83 µM in [9] and 1.56 µM in assay [10]. Also, the TGI in assay [1] came out at 4.9 µM; in assay [2], 8.09 µM; in assay [3], 4.79 µM; in assay [4] it was 3.36 µM; in assay [5], 3.79 µM; in assay [6], 3.92 µM. Besides, the TGI is 2.84 µM in assay [7], 4.5 µM in assay [8], 6.25 µM in assay [9] and 3.14 µM in assay [10].
Regarding `Cn1c(C(=O)c2ccncc2)cc2ccccc21`, the GI50 in [1] is 72.9 µM; in assay [2], more than 100 µM; in [3], more than 100 µM; in assay [4] it was more than 100 µM; in assay [5], 96.7 µM; in assay [6], 48.8 µM. In addition, the GI50 in assay [7] was 37.5 µM; in assay [8], 85.6 µM; in assay [9] it was 46.8 µM; in assay [10], 49.7 µM. The TGI in [1], in assay [2], in assay [3], in [4], in assay [5] and in [6] was more than 100 µM in each case. Besides, the TGI in assay [7], in assay [8], in assay [9] and in [10] was more than 100 µM in each case.
For `CC(C)c1c(-c2ccccc2)nc2c(C#N)c[nH]n2c1=O`, the GI50 in assay [1] is 31.2 µM; in assay [2] it was 29.1 µM; in assay [3], 34.3 µM; in [4], 24.3 µM; in assay [5], 28.8 µM; in [6] it was 24.2 µM. Besides, the GI50 in [7] is 19.6 µM; in assay [8], 21.4 µM; in assay [9], 31.2 µM; in assay [10] it was 25.2 µM. Also, the TGI in [1] is more than 100 µM; in [2] it was more than 100 µM; in [3] it was more than 100 µM; in [4], 73.3 µM; in assay [5], more than 100 µM; in assay [6], 67.7 µM. In addition, the TGI in assay [7] was 40.4 µM; in [8], more than 95.2 µM; in [9] it was more than 100 µM; in assay [10], 63.8 µM.
Take `CC1CCC2(NC1)OC1CC3C4CC=C5CC(O)CCC5(C)C4CCC3(C)C1C2C` (centres undefined): the GI50 is 25.5 µM and 11.2 µM in [1]; 34.1 µM and 13.5 µM in [4]; 39.8 µM and 16.1 µM in assay [5]; 59 µM and 27.3 µM in [7]; 28 µM and 8.98 µM in [10]. Moreover, the TGI in assay [1] was 71.6 µM and 33 µM; in [2], 47.9 µM and 44.7 µM; in assay [3], more than 100 µM; in assay [4] it was > 100 µM and 34.3 µM; in assay [5], more than 100 µM; in [6], 93.3 µM and 70.2 µM. Moreover, the TGI in assay [7] was more than 100 µM; in [8] it was 15.3 µM; in assay [9], 51.3 µM and > 57.1 µM; in assay [10], > 100 µM and 32.5 µM.
Consider `COc1ccc(-c2ccncc2)cc1C(N)=O`, for which the GI50 in [1], in assay [2], in assay [3], in assay [4], in [5] and in assay [6] was more than 25 µM each time. Further, the GI50 in assay [7], in assay [8], in assay [9] and in [10] was more than 25 µM throughout. Besides, the TGI in assay [1], in [2], in assay [3], in assay [4], in assay [5] and in [6] was more than 25 µM each time. The TGI in [7], in assay [8], in [9] and in assay [10] was more than 25 µM in each case.
Regarding `O=[N+]([O-])c1cc(Cl)c2[nH]c3c(Cl)cc([N+](=O)[O-])cc3c2c1`, the GI50 in [1] was 0.209 µM; in assay [2] it was 0.356 µM; in assay [3], 0.471 µM; in assay [4], 0.265 µM; in assay [5], 0.403 µM; in [6], 0.124 µM. Moreover, the GI50 in assay [7] was 0.129 µM; in [8], 0.511 µM; in assay [9], 0.345 µM; in [10], 0.279 µM. Further, the TGI in assay [1] was 0.752 µM; in assay [2] it was 19.1 µM; in [3], more than 100 µM; in [4], 4.04 µM; in [5], more than 100 µM; in assay [6], more than 100 µM. Besides, the TGI in assay [7] was 0.651 µM; in [8], 9.35 µM; in assay [10], more than 100 µM.
For the compound `NCCSSCCN`, the TGI in [1], in assay [2], in assay [3], in assay [4], in assay [5] and in assay [6] was more than 100 µM throughout. Besides, the TGI in assay [7], in [8], in assay [9] and in [10] was more than 100 µM throughout.
